Experimental data: patent publication US20250102494A1, “COMPOSITION FOR PREDICTING OXALIPLATIN DRUG EFFICACY, AND USE THEREOF” (SAMSUNG LIFE PUBLIC WELFARE FOUNDATION, priority 2022, published 2025)

Columns and labels:
Format in all cases: cell-based
Total Cell Line = assay: Average oxaliplatin AUC over all colorectal cancer cell lines
Description: (§1) Four hours after the medium change, the cells were treated with oxaliplatin, 5-FU, Irinotecan, and folinic acid. Five days after drug treatment, intracellular ATP expression was determined using the ATPlite assay kit (PerkinElmer), and the data were expressed in terms of cell viability, IC50, and AUC.
As the standard for confirming that cells are sensitive to the drug, the response of the cells to the drug was assumed to be 100%, and the luminescence value of surviving cells after drug treatment was analyzed and compared with the quantified drug response value.
Based on the assumption that the factor that increases the resistance of the organoids to oxaliplatin is an activator or inhibitor that changes the phenotype, the organoids prepared by excluding some or all of activators and inhibitors as shown in Table 4 below were treated with oxaliplatin.
In order to confirm reduced resistance to oxaliplatin, ECT116, RKO, SW620, and LS147T cell lines, which are highly sensitive to oxaliplatin, and HT29, HTC15, CoLo205, and Lovo cell lines, which are low sensitive to oxaliplatin, were used.
When the above results were combined with the results shown by cell lines with high sensitivity to oxaliplatin and cell lines with low sensitivity to oxaliplatin, the result data shown in FIGS. 23 and 24 and Tables 5 to 7 below were obtained.

CoLo205 cells = assay: ATPlite cell viability after oxaliplatin, CoLo205 cells in organoid culture media; conditions: FIG. 19
Description: (§2) Advanced DMEM/F12+++ (hereinafter referred to as “Ad/DF+++”) was used to produce colorectal cancer organoids. Ad/DF+++ was refrigerated at 4° C. until use, and was used in a cold state during cell washing. Ad/DF+++ medium containing the reagents shown in Table 1 below along with Ad/DF 1× (Gibco) was prepared.
After preparing the Ad/DF+++ medium containing the above reagents, an appropriate amount of Matrigel (Corning #356231) was added so that the ratio between Matrigel and cells suspended in the Ad/DF+++ medium was 7:3. Then, the cells were plated on low attachment well plates at an appropriate density. The density and the type and number of well plates were determined according to the characteristics of each cell type. […]
If the organoids were expanded as needed for the experiment, the medium was carefully removed, taking care not to touch the Matrigel. […] After suspending the pellet in Ad/DF+++, the cells were counted and diluted with medium according to the required number of cells. […]
as §1, with “AUC. […]” for “AUC.”

[1] = tested on: 166T colorectal cancer patient-derived organoids; assay: Cell viability after oxaliplatin, 2D and 3D culture of patient-derived organoids; conditions: for cell viability, Ex1 medium compared with control (CRC): FIGS. 26 and 27
Description: as §1
In order to evaluate the difference between 2D culture and 3D culture performed using the above medium compositions, 166T CoLvM patient-derived organoids were cultured under 2D culture conditions and 3D culture conditions.

SW620 cells = assay: ATPlite cell viability after oxaliplatin, SW620 cells in organoid culture media
Description: as §2
After preparing the Ad/DF+++ medium containing the above reagents, an appropriate amount of Matrigel (Corning #356231) was added so that the ratio between Matrigel and cells suspended in the Ad/DF+++ medium was 7:3. Then, the cells were plated on low attachment well plates at an appropriate density. The density and the type and number of well plates were determined according to the characteristics of each cell type. The medium was prepared according to the composition shown in Table 2 below, and the cells were cultured (expanded) until the required level was reached while the medium was replaced every 3 to 4 days.
If the organoids were expanded as needed for the experiment, the medium was carefully removed, taking care not to touch the Matrigel. The cells were separated from the Matrigel by pipetting about 20 times with 1 ml of cold Ad/DF+++. The cells in 1 to 4 wells per 6-well plate were collected in one 50 ml tube. If cells are collected from more than 4 wells into one tube, the Metrigel may not be washed properly. For this reason, the cells were placed in several tubes. Thereafter, Ad/DF+++ was poured to 20 to 50 ml of each tube, followed by centrifugation at 400 g for 3 minutes at 4° C. The cells were dissociated with 1 to 2 mL of TrypLE™ Express Enzyme (Gibco, 1264-013), transferred to low-attachment 24 well plates, and then treated with 10 μM of Y-27632. Next, the cells were cultured in a CO2 incubator for 5 minutes at 37° C. After pipetting about 20 times, whether the cells would be dissociated into single cells was checked by microscopic observation. If the cells were not dissociated into single cells, the culture under CO2 and pipetting processes were repeated. […] After suspending the pellet in Ad/DF+++, the cells were counted and diluted with medium according to the required number of cells. […]
as §1
As the standard for confirming that cells are sensitive to the drug, the response of the cells to the drug was assumed to be 100%, and the luminescence value of surviving cells after drug treatment was analyzed and compared with the quantified drug response value. […]

## O=C1[O][Pt]2([NH][C@@H]3CCCC[C@H]3[NH]2)[O]C1=O [oxaliplatin]
Total Cell Line; average over total cell lines, Ex1 medium
  EX1_AUC: 408.05
Total Cell Line; average over total cell lines, Ex2 medium
  EX2_AUC: 384.32
Total Cell Line; average over total cell lines, normal cell-line culture
  normal_AUC: 330.83
Total Cell Line; total cell lines
  EX1 − EX2 (AUC difference): 23.73
CoLo205 cells
  AUC values of Ex2 to Ex4 compared with Ex1: higher than that of Ex1
[1]; 2D and 3D culture
  cell viability, Ex2 medium compared with control: cell viabilities similar to those of the control group
[1]; 2D culture
  cell viability, Ex1 medium compared with control (CRC): cell viability similar to that of the control (CRC) cell line
[1]; 3D culture
  cell viability, Ex1 medium compared with control (CRC): higher cell viability than that of the control (CRC) cell line
SW620 cells; SW620, FIG. 9
  AUC value, Ex2 compared with other organoid culture conditions: lower in the organoid culture conditions of Ex2
  AUC value, Ex3 and Ex4 compared with Ex1: no significant difference in AUC values from Ex1
SW620 cells; SW620, FIG. 10
  IC50 value, Ex2 compared with Ex1: lower in Ex2 than in Ex1
SW620 cells; SW620 in Ex2, log [oxaliplatin] value 1, FIG. 11
  cell viability: 50%
